Like-named read-outs stand apart in the source and are kept apart here.
How the values were obtained:
[1] = biological target: T1, G9a (Homo sapiens, UniProt Q96KQ7); experiment: Methyltransferase selectivity assay (SPA); format: biochemical
T1 construct: purchased Structural Genomics Consortium (SGC Toronto) in-house methyltransferase panel
T1 sequence (Q96KQ7 1-1210): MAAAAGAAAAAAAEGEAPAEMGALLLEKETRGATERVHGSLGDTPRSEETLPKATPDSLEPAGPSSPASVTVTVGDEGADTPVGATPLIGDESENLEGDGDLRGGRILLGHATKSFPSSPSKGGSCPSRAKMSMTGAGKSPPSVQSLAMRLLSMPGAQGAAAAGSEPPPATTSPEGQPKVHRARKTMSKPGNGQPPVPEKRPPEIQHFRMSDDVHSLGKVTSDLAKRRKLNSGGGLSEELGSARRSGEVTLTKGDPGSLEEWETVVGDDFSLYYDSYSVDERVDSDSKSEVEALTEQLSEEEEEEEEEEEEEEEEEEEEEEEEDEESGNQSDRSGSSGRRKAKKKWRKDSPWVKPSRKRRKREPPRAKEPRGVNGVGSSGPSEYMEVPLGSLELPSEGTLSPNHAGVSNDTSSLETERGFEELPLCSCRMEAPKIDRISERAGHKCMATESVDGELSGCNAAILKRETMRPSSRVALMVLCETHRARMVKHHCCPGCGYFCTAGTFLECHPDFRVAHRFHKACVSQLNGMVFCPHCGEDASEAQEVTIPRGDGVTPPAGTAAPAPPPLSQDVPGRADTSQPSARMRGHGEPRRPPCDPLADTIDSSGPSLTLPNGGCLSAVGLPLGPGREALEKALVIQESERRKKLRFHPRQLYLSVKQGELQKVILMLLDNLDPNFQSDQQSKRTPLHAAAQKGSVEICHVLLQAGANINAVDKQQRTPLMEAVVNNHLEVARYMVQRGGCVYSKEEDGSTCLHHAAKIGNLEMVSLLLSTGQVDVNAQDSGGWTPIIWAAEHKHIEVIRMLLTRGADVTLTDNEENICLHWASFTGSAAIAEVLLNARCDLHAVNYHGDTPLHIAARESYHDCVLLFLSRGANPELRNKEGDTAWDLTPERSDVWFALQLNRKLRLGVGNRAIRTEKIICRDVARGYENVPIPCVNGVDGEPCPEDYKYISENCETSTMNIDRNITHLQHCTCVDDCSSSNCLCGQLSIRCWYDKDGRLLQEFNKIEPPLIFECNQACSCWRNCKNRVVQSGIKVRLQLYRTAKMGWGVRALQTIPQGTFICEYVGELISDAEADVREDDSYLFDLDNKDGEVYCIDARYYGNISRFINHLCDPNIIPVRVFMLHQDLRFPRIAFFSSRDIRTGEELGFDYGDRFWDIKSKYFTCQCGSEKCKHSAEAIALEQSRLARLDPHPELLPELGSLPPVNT
Method: (§1) Selectivity against methyltransferases were determined as described previously. Details of the assays are described in the supplementary methods.
(§2) Methyltransferase selectivity assay1
(§3) The effect of chemical probes and negative controls on the methyltransferase activities of protein, DNA and RNA methyltransferases was tested by radiometric assays using 3H-SAM. For proteins such as MLL1 trimeric, MLL3 pentameric, EZH1 (PRC2) pentameric, and EZH2 (PRC2) trimeric complexes, as well as G9a, GLP, SUV39H1, SUV39H2, SUV420H1, SUV420H2, SETD2, SETD8, SETDB1, SETD7, PRMT1, PRMT3, PRMT4, PRMT5/ MEP50 complex, PRMT6, PRMT7, PRMT8, PRMT9, PRDM9, SMYD2, SMYD3, DNMT1, and BCDIN3D the incorporation of a tritium-labeled methyl group into biotinylated substrate was monitored using scintillation proximity assay (SPA). Briefly, a 10 µL reaction containing 3H-SAM and substrate at concentrations close to the apparent Km values for each enzyme (balanced conditions) was prepared. The reactions were quenched with 10 µL of 7.5 M guanidine hydrochloride; 180 µL of 20 mM Tris buffer (pH 8.0) were added, and the mixture was transferred to a 96-well FlashPlate and incubated for 1 h. The counts per minute (CPM) was measured on a TopCount plate reader. The CPM in the absence of compound or enzyme was defined as 100% activity and background (0%), respectively, for each dataset. For DNMT1, the double-stranded DNA substrate was prepared by annealing two complementary strands (biotinylated forward strand: B-[…] and reverse strand:
(§4) ) that were synthesized by Eurofins MWG Operon
(§5) For proteins which were tested with nucleosome as substrate such as DOT1L, NSD1, NSD2, NSD3, and ASH1L, or unbiotinylated Poly(2′-deoxyinosinic-2′-deoxycytidylic acid) (Cat# 81349-500UG, Sigma Aldrich) such as DNMT3A/3L, and DNMT3B/3L, a filter-based assay was used. In this assay, a trichloroacetic acid (TCA) protein precipitation protocol was employed. A 10 µL reaction mixture was incubated at 23°C for 1 h, followed by addition of 50 µL of 10% TCA. The mixture was transferred to filter plates (Millipore, Billerica, MA, USA) that were centrifuged at 2000 rpm (Allegra X-15R; Beckman Coulter, Brea, CA, USA) for 2 min. Samples were washed twice with 10% TCA and once with ethanol (180 µL), and centrifuged. After drying, 100 µL MicroScint-O (Perkin Elmer) was added to each well and the plates were centrifuged to remove the liquid. A 70 µL volume of MicroScint-O was added and the CPM was measured with a TopCount plate reader.

[2] = biological target: T2, BCDIN3D (Homo sapiens, UniProt Q7Z5W3); experiment: Methyltransferase selectivity assay (SPA); format: biochemical
T2 construct: purchased Structural Genomics Consortium (SGC Toronto) in-house methyltransferase panel
T2 sequence (Q7Z5W3 1-292): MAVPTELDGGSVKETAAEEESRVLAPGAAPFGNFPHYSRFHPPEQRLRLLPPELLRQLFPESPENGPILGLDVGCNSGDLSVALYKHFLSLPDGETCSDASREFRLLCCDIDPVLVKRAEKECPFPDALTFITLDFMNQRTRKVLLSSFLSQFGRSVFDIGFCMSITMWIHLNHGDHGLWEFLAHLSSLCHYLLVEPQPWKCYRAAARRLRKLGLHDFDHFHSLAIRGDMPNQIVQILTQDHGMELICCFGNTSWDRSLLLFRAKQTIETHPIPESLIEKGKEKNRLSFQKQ
Method: as §1, §2, §3, §4, §5

[3] = 10µM compound, Exp1, Exp2, 10 µM
[4] = 1µM compound, Exp1, Exp2, read-out: Activity %
[5] = 10µM compound, Exp1, Exp2, read-out: Activity %

SMILES | activity at 1 µM ([1]; 1µM compound, Exp1, Exp2) | Activity % ([1]; 1µM compound, Exp1, Exp2, 1 µM) | activity at 10 µM ([1]; 10µM compound, Exp1, Exp2) | Activity % [1, 3] | activity at 1 µM ([2]; 1µM compound, Exp1, Exp2) | Activity % ([2]; 1µM compound, Exp1, Exp2, 1 µM) | activity at 10 µM ([2]; 10µM compound, Exp1, Exp2) | Activity % [2, 3] | activity at 1 µM [1, 4] | activity at 10 µM [1, 5] | activity at 1 µM [2, 4] | activity at 10 µM [2, 5]
COc1cc(OC)cc(-c2noc(N3CCN(C)C4(CCN(c5ccccc5)CC4)C3)n2)c1 [MRK-740 -NC] | 101% | 100% | 95% | 93% | 103% | 101% | 100% | 94% |  |  |  | 
COc1cc(OC)cc(-c2noc(N3CCN(C)C4(CCN(c5ccnc(C)c5)CC4)C3)n2)c1 [MRK-740] |  | 89% |  |  |  | 100% |  | 95% | 93% | 94% | 101% | 104%
